Measured values published in PubChem BioAssay AID463206 (Broad Institute, 2010).
Activity calls are given as the source filed them.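 Rule for the calls: active = caspase luminescence falls with dose and the half-maximal concentration AC50 from the fitted curve is at or below a set limit; inconclusive = flat fit at 30 to 70% signal loss, or invalid fit; inactive = AC50 above the limit, or signal rises instead.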

System: INS-1E cytokine-induced caspase-3/7, Caspase-Glo luminescence, 48 h
Assay: suppression of cytokine-driven beta-cell apoptosis – INS-1E rat cells, luminescence, orthogonal assay for beta-cell apoptosis protection project, dose response (AID 463206)

| Compound | AC50 |
| --- | --- |
| CC1=CC(=O)C(C(C)C)=C/C1=N/OS(=O)(=O)c1ccccc1 | > 26 µM (inactive) |
| O=[N+]([O-])c1ccc(O)c(-c2cc(C(F)(F)F)nc(-c3ccccc3)n2)c1 | > 26 µM (inactive) |
| CCCC(C)C(=O)Nc1nc(C)c(-c2csc(Nc3ccc(Cl)cc3)n2)s1 (centres undefined) | > 26 µM (inactive) |
| FC(F)(F)c1ccc(CN2C[C@@H]3C(c4ccc(C(F)(F)F)cc4)C4(c5cccnc5)CC3(C4)[C@H]2c2ccccc2)cc1 (some centres undefined) | > 26 µM (inactive) |
| O=NN(CCc1ccncc1)c1ccc(OCc2ccccc2)cc1 | > 26 µM (inactive) |
| Cc1cc(N2CCC(C)CC2)nc(NCc2ccccc2)n1 | 19.6 µM |
| COc1ccc(C(CCNCc2ccc(OC(C)C)cc2)c2ccccc2OC)cc1 (centres undefined) | > 26 µM (inactive) |
| CC(CC(=O)N1CCN(c2cccc(Cl)c2)CC1)S(=O)(=O)c1ccc2c(c1)NC(=O)CO2 (centres undefined) | > 26 µM (inactive) |
| Cc1ccc(C2CC(c3ccc(C)cc3)n3nc(N)nc3N2)cc1 (centres undefined) | > 26 µM (inactive) |
| Cc1ccc(-c2cc(-c3ccccc3)cc(-c3ccccc3)[n+]2-c2ccccc2)cc1 | > 26 µM (inactive) |
| CCc1ccc(C2CC(c3cccc(Cl)c3)n3nc(N)nc3N2)cc1 (centres undefined) | > 12 µM (inactive) |
| Cc1ccc2cc(C3C(C#N)=C(N)Oc4c3ccc3cccnc43)c(=O)[nH]c2c1 (centres undefined) | > 26 µM (inactive) |
| O=C(COc1ccc(Br)cc1)N1CCN(Cc2c[nH]c3ccccc23)CC1 | > 26 µM (inactive) |
| Cc1cc(S(=O)(=O)NCc2ccncc2)c(C)cc1Br | > 26 µM (inactive) |
| FC(F)(F)c1ccccc1NC(=S)N1CCc2ccccc2C1 | > 26 µM (inactive) |
| C/C(=N\NC(=O)c1cc(Br)ccc1O)c1ccccn1 | > 26 µM (inactive) |
| CC(C)Nc1ccc(Nc2ccccc2)cc1 | > 26 µM (inactive) |
| CCC(CNc1cc(OC)cc2cccnc12)NC1CCCCC1 (centres undefined) | > 26 µM (inactive) |
| Cc1cc(C)n2nc(SCc3nnc(SCc4ccccc4C)s3)nc2n1 | > 26 µM (inactive) |
| CCCCCN=Cc1c(C)[nH]n(-c2nc3ccccc3s2)c1=O | > 26 µM (inactive) |
| N#CC(C#N)=C(Nc1ccc(F)cc1)SCc1cccc(Br)c1 | > 26 µM (inactive) |
| Cc1ccn2c(Nc3ccccc3C)c(-c3ccccn3)nc2c1 | > 26 µM (inactive) |
| N#CC(c1cccc(Cl)c1)c1ccc2c(C(F)(F)F)cc(C(F)(F)F)nc2n1 (centres undefined) | > 26 µM (inactive) |
| CC(=O)Nc1ccc(C2=CC(=O)C[C@H](c3ccc4c(c3)OCO4)C2)cc1 | > 26 µM (inactive) |

| Compound | AC50 |
| --- | --- |
| CN(C)C(=O)c1ccc(NC(=O)c2cccc(S(=O)(=O)N3CCCCCC3)c2)cc1 | > 26 µM (inactive) |
| O=C(Nc1ccccc1Cl)/C(Cl)=C(\Cl)S(=O)c1ccccc1 (centres undefined) | > 26 µM (inactive) |
| Cc1cc(C)c2nc(NNC(=O)c3ccc(S(=O)(=O)N4CC(C)CC(C)C4)cc3)sc2c1 (centres undefined) | > 26 µM (inactive) |
| CN(C)C(=O)c1ccc(NC(=O)c2cccnc2)cc1 | > 26 µM (inactive) |
| Cn1nnnc1Sc1ncnc2scc(-c3cc4ccccc4o3)c12 | > 26 µM (inactive) |
| C=C(C)C(=O)N1CC2(CC(c3cccc(NC(=O)COc4ccc(Cl)cc4)c3)=NO2)C[C@@H]1C(N)=O (some centres undefined) | > 26 µM (inactive) |
| O=S(=O)([N-]c1nc2ccccc2nc1-[n+]1ccc(Cc2ccccc2)cc1)c1ccc(Br)s1 | > 26 µM (inactive) |
| O=C(NNC(=S)Nc1ccc(Cl)c(Cl)c1)c1ccccn1 | > 26 µM (inactive) |
| CCN(CC)C(=O)c1cc([N+](=O)[O-])cc2c1-c1ccc([N+](=O)[O-])cc1C2=C(C#N)C#N | > 26 µM (inactive) |
| C/C(=N\NC(=O)c1nnn(-c2nonc2N)c1CN1CCc2ccccc21)c1ccccc1O | > 26 µM (inactive) |
| CCCCC(=O)NC(c1ccc(N(CC)CC)cc1)c1ccc2cccnc2c1O (centres undefined) | > 26 µM (inactive) |
| CC(C)CCCCCCNC(=S)Nc1ccc(S(=O)(=O)N2CCOCC2)cc1 | > 26 µM (inactive) |
| Cc1ccc(C(=O)Nc2cccc3[nH]c(C(F)(F)F)nc23)cc1 | > 26 µM (inactive) |
| CCOC(=O)C(C)/C(C)=N/NC(=O)c1cc2ccccc2cc1O (centres undefined) | > 26 µM (inactive) |
| O=C1c2ccc3c4c(ccc(c24)C(=O)N1c1cccc(O)c1)C(=O)N(c1cccc(O)c1)C3=O | > 26 µM (inactive) |
| CCN(CC)S(=O)(=O)c1ccc(Cl)c(C(=O)Nc2ccc(Cl)cc2[N+](=O)[O-])c1 | > 26 µM (inactive) |
| COc1ccc(OC)c(NC(=O)c2nc(S(=O)(=O)Cc3ccccc3)ncc2Cl)c1 | > 26 µM (inactive) |
| O=[N+]([O-])c1cccnc1N/N=C/c1ccccc1O | > 26 µM (inactive) |
| OCCCNc1c2ccccc2nc2ccccc12 | 7.37 µM |
| COc1ccc(C(=O)N2CCN(c3ccc([N+](=O)[O-])c(NCCc4ccc(OC)c(OC)c4)c3)CC2)cc1 | > 26 µM (inactive) |
| COC(=O)[C@H](Cc1ccccc1)N(Cc1ccccc1)S(=O)(=O)N(Cc1ccccc1)[C@@H](Cc1ccccc1)C(=O)OC | > 26 µM (inactive) |
| CCOC(=O)c1cnc(-n2nc(C)cc2C)nc1Nc1ccc(N(C)C)cc1 | > 26 µM (inactive) |
| CCOc1ccc(C(=O)c2cc([N+](=O)[O-])ccc2N2CCOCC2)cc1 | 0.83 µM |
| CCOC(=O)C1CCN(C(=O)c2c(C)oc3c2C(=O)c2ccccc2C3=O)CC1 | > 26 µM (inactive) |

| Compound | AC50 |
| --- | --- |
| COc1cc(OC)c2cc(C(=O)N/N=C/c3cccc(OC)c3O)[nH]c2c1 | > 26 µM (inactive) |
| CC1(C)CCN2CCC(C)(C)c3c(O)ccc1c32 | > 26 µM (inactive) |
| CCn1c(-c2ccc(C)cc2)nn(CC(=O)NCCc2ccccc2)c1=S | > 26 µM (inactive) |
| CC[C@H](C)Cc1cn([C@@H](CCCCNC(=O)OC(C)(C)C)C(=O)NCCCCCCCCCCC(=O)N2CCN(C(=O)OC(C)(C)C)CC2)nn1 | > 26 µM (inactive) |
| Cc1cc(C)c2sc(NNC(=O)c3ccc(S(=O)(=O)N4CCc5ccccc5C4)cc3)nc2c1 | > 26 µM (inactive) |
| FC(F)(F)c1ccccc1NC(=S)N1CCN(Cc2ccc3c(c2)OCO3)CC1 | > 26 µM (inactive) |
| C=CCN(CC=C)Cc1c[nH]c2ccccc12 | 26.3 µM |
| CCCCCCCCCC[N+](C)(C)CC/C=C1/c2ccccc2Sc2ccc(Cl)cc21 | > 26 µM (inactive) |
| CCOC(=O)C1CCCN(S(=O)(=O)c2ccc(S(=O)(=O)N(CC)CC)cc2)C1 (centres undefined) | > 26 µM (inactive) |
| COc1ccc(-c2cc(-c3nc4ccccn4c3NCc3ccccc3)ccc2OC)cc1 | > 26 µM (inactive) |
| O=C1/C(=N\S(=O)(=O)c2cccs2)C([n+]2cccc(Cc3ccccc3)c2)=C([O-])c2ccccc21 | > 26 µM (inactive) |
| CCN(CC)c1ccc(/C=N/N(c2ccccc2)c2ccccc2)c(O)c1 | > 26 µM (inactive) |
| Cc1ccc2[nH]c(C(=O)N/N=C/c3ccccc3O)c(C)c2c1 | > 26 µM (inactive) |
| Cc1cc(C)nc(-n2nc(C)cc2Nc2ccccc2)n1 | > 26 µM (inactive) |
| O=C(c1cc(-c2cccc(Cl)c2)nc2ccccc12)N1CCN(c2ccccn2)CC1 | > 26 µM (inactive) |
| c1ccc(-c2csc3ncnc(NCC4COc5ccccc5O4)c23)cc1 (centres undefined) | > 26 µM (inactive) |
| Oc1cccc(/C=N/NC(=S)Nc2cccnc2)c1O | > 26 µM (inactive) |
| Cn1nccc1C(=O)NC1CCCc2c1cnn2-c1ccc(F)cc1F (centres undefined) | > 26 µM (inactive) |
| Cn1c(=O)[nH]c(=O)c2c1nc([N+](=O)[O-])n2Cc1ccccc1 | > 26 µM (inactive) |
| Oc1c(C(Nc2ccccn2)c2cccnc2)cc(Cl)c2cccnc12 (centres undefined) | > 26 µM (inactive) |
| CC(=O)c1c(C)[nH]c(C(=O)OCC(=O)Nc2ccc(Cl)cc2[N+](=O)[O-])c1C | > 26 µM (inactive) |
| CCn1c(-c2ccc(N(C)C)cc2)nc2ccccc21 | > 26 µM (inactive) |
| CCCCC(=O)NC(c1ccco1)c1cc(Cl)c2cccnc2c1O (centres undefined) | > 26 µM (inactive) |
| CCN(CC)c1ccc(/C=N/Nc2nc(C)cc(C)n2)c(O)c1 | > 26 µM (inactive) |

| Compound | AC50 |
| --- | --- |
| C/C(=N\Nc1nc(C)cc(-c2ccccc2)n1)c1ccc(F)cc1 | > 26 µM (inactive) |
| COC(=O)C1=C(C)N(Cc2ccccc2)C(=NCc2cccc(C(F)(F)F)c2)N[C@H]1c1cccc(F)c1 | > 26 µM (inactive) |
| Cc1onc(-c2ccccc2)c1C(=O)NC(=S)NNC(=O)c1ccc(O)cc1O | > 26 µM (inactive) |
| O=S1(=O)CCN(Cc2csc(-c3cccs3)n2)CC1 | > 26 µM (inactive) |
| O=C(N/N=C/c1ccc[nH]1)c1ccc(COc2cccc3cccnc23)cc1 | > 26 µM (inactive) |
| NC(N)=N/N=C/c1cn(-c2ccccc2)nc1-c1cccs1 | > 26 µM (inactive) |
| O=C(N/N=C/c1cccnc1)c1ccc(NC(=O)C(c2ccccc2)c2ccccc2)cc1 | > 26 µM (inactive) |
| Oc1ccc(Nc2nc(-c3ccc4ccccc4c3)cs2)cc1 | > 26 µM (inactive) |
| O=[N+]([O-])c1ccc(NC(=S)NCCc2ccc(Cl)cc2)cc1 | > 26 µM (inactive) |
| CCCCCc1nc2c(c(=O)c3ccccc3n2C)c(=O)n1C1CCCCCC1 | > 26 µM (inactive) |
| CCc1ccc(-n2cc(-c3ccc(F)cc3)[n+]3c2SCCC3)cc1 | > 26 µM (inactive) |
| COc1ccc(C(=O)NN/C(C)=C/C(=O)C(F)(F)C(F)(F)C(F)(F)F)cc1 | > 26 µM (inactive) |
| CC(=O)NC(c1ccco1)c1cc(F)c2cccnc2c1O (centres undefined) | > 26 µM (inactive) |
| COc1ccccc1C(=O)Nc1nc2ccccc2[nH]1 | > 26 µM (inactive) |
| Cc1cc(C)n(Cc2ccc(NC(=O)c3ccc(COc4ccccc4Br)cc3)cc2)n1 | > 26 µM (inactive) |
| O=C(c1cc2sccc2n1Cc1ccccc1)N1CCN(c2nc3ccccc3s2)CC1 | > 26 µM (inactive) |
| Cc1nnc2ccc(Oc3ccc(-c4ccccc4)cc3)nn12 | > 26 µM (inactive) |
| Cc1nn(C)c(C)c1CN(C)S(=O)(=O)c1ccc2ccccc2c1 | > 26 µM (inactive) |
| CC1CCN(Cc2c(C(=O)N/N=C/c3cc(Cl)ccc3O)nnn2-c2nonc2N)CC1 | > 26 µM (inactive) |
| O=c1c2ccccc2nc(COc2ccccc2)n1/N=C/c1cc([N+](=O)[O-])ccc1O | > 26 µM (inactive) |
| COc1cccc(/C=N/Nc2ncc(C(F)(F)F)cc2Cl)c1O | > 26 µM (inactive) |
| Cc1ccc(NC(=S)N/N=C/c2ccc([N+](=O)[O-])s2)cc1 | > 26 µM (inactive) |
